Measurements reported in US20050065436A1, “Rapid and non-invasive optical detection of internal bleeding” (priority 2003, published 2005).

Assay: NIR absorption and fluorescence spectra of indocyanine green
Assay type: physicochemical
Text: Many NIR fluorescence compounds are potential candidates for the present application. One of examples, indocyanine green (ICG), because of its low toxicity, has been used in many clinical applications. Indocyanine green, molecular weight 775, is a tricarbocyanine type of green dye. FIG. 2 and FIG. 3 show the NIR absorption, 650-850 nm, and NIR fluorescence spectra, 650-900 nm, of ICG, respectively. ICG has little absorption in the visible light. However, it is easily excited by an NIR light source with high quantum efficiency. Diode laser light sources with a wavelength between […] is suitable for ICG excitation. The fluorescent peak has a large red shifted relatively to the excitation wavelength. The fluorescence peak at 810 nm is within the NIR window for tissue optics. Due to ICG has a very large fluorescent quantum yield and a distinct peak at 810 nm, a sensitivity of 0.5 μg/ml can be achieved easily. FIG. 3(a), (b), and (c) show the fluorescence spectra of ICG in blood samples with various concentration between 0.5-500 μg/ml

- NIR fluorescence spectra (FIG. 3): 650-900 nm
- fluorescence peak (FIG. 3, concentrations 0.5-500 μg/ml): 810 nm
- NIR absorption (absorption spectrum, FIG. 2): 650-850 nm
Compound: CC1(C)C(/C=C/C=C/C=C/C=C2\N(CCCCS(=O)(=O)O)c3ccc4ccccc4c3C2(C)C)=[N+](CCCCS(=O)(=O)[O-])c2ccc3ccccc3c21 [ICG, Indocyanine green]
